The text below walks through data of ChEMBL document CHEMBL4402516, “5-Lipoxygenase as a drug target: A review on trends in inhibitors structural design, SAR and mechanism based approach” (Bioorg Med Chem, 2019).

In assay [1] the target is T1, Polyunsaturated fatty acid 5-lipoxygenase (Homo sapiens, UniProt P09917).
T1 sequence (P09917 whole entry): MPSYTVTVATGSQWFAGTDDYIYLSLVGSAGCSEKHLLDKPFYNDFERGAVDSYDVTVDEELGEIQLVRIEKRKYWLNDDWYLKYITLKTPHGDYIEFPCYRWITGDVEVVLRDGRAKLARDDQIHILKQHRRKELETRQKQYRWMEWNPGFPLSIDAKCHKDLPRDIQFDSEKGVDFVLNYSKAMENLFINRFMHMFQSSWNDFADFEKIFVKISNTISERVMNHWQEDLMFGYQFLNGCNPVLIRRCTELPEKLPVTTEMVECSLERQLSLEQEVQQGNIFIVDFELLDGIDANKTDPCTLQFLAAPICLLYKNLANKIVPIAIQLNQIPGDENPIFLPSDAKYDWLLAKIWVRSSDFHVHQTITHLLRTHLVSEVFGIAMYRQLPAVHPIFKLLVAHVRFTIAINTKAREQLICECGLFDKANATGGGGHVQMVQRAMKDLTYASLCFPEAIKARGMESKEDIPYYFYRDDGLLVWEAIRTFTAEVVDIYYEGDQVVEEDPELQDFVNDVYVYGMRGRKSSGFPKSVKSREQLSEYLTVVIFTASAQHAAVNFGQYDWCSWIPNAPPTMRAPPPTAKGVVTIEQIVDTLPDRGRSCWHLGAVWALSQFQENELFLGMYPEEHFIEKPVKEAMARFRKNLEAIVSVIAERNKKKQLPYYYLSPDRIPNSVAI
In words: Inhibition of 5-LOX in A23187-stimulated human neutrophils preincubated for 15 mins followed by A23187 stimulation and measured after 10 mins.

Assay [2] is described as follows: Inhibition of potato 5-LOX using linoleic acid as substrate measured at 2 min by UV absorbance method. Details: species or system Solanum tuberosum.
The test system of assay [3] is Glycine max. In words: Inhibition of soybean 5-LOX at 100 uM incubated for 10 mins relative to control.
Assay [4] has as its system MCF7. In words: Antiproliferative activity against human MCF7 cells by MTT assay. Format: functional, cell-based. Background: Tetrazolium dyes change colour on reduction, which living cells bring about.
The target of assay [5] is T1, Polyunsaturated fatty acid 5-lipoxygenase. In words: Inhibition of 5-LOX (unknown origin) after 5 mins by colorimetric method.
Assay [6] concerns the target T2, Polyunsaturated fatty acid 5-lipoxygenase (Rattus norvegicus, UniProt P12527).
T2 sequence (P12527 whole entry): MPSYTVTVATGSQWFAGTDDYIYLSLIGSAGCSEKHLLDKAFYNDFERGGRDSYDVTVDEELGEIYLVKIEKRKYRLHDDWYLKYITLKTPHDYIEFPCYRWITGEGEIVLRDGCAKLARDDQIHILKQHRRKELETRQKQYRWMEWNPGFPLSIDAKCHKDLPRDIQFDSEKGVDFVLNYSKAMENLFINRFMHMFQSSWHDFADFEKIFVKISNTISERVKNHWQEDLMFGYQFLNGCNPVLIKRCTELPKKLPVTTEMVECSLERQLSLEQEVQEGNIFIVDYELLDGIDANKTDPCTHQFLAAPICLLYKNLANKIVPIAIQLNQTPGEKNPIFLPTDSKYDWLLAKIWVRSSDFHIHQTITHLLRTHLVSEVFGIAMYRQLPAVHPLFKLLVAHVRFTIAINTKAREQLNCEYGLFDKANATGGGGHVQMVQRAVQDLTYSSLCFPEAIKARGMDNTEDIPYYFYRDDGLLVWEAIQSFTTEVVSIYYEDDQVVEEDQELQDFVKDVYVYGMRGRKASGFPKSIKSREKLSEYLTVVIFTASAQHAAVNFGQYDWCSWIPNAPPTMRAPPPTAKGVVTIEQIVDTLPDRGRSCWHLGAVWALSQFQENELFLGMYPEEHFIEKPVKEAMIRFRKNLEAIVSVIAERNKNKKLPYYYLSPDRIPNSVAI
In words: Inhibition of rat 5-LOX expressed in insect sf21 cells preincubated for 4 mins followed by Arachidonic acid addition and measured after 4 mins by FOX assay.

In assay [7] the target is T3, Polyunsaturated fatty acid 5-lipoxygenase (Rattus norvegicus) (UniProt P12527).
T3 sequence (whole entry): T2 sequence (P12527 whole entry)
The assay can be described thus: Inhibition of 5-LOX in rat RBL-1 cells assessed as reduction in LTB4 secretion at 1 uM preincubated for 10 mins followed by A23187 stimulation and measured after 15 mins by EIA. Type of assay: cell-based.

Assay [8] concerns the target T3, Polyunsaturated fatty acid 5-lipoxygenase (Rattus norvegicus). In words: Inhibition of rat 5-LOX expressed in insect sf21 cells at 1 uM preincubated for 4 mins followed by Arachidonic acid addition and measured after 4 mins by FOX assay relative to control.
Assay [9] deals with Prostaglandin E synthase/G/H synthase 2 (Homo sapiens) (UniProt P35354+O14684). The assay can be described thus: Inhibition of COX2/mPGES1 in TNFalpha-induced human HeLa cells assessed as reduction in PGE2 production at 50 uM incubated for 3 hrs by EIA relative to control. Type of assay: cell-based.
For assay [10], the target named is T4, Polyunsaturated fatty acid 5-lipoxygenase (Homo sapiens) (UniProt P09917).
T4 sequence (whole entry): T1 sequence (P09917 whole entry)
In words: Inhibition of recombinant human 5-LOX expressed in Escherichia coli BL21 cells at 50 uM using arachidonic acid as substrate by UV-vis spectrophotometry relative to control.

The target of assay [11] is T1, Polyunsaturated fatty acid 5-lipoxygenase. In words: Inhibition of human PMNL 5-LOX using arachidonic acid as substrate after 5 mins by HPLC method.
Assay [12] shares this target. The assay can be described thus: Inhibition of human leukocyte 5-LOX using arachidonic acid as substrate by UV/Vis spectrophotometry.
Assay [13] is described as follows: Inhibition of soybean 15-LOX by spectrophotometric method. Details: species or system Glycine max.
The target of assay [14] is T1, Polyunsaturated fatty acid 5-lipoxygenase. The assay can be described thus: Inhibition of recombinant human 5-LOX expressed in Escherichia coli BL21 (DE3) cells preincubated for 10 mins followed by arachidonic acid addition and measured after 10 mins by RP-HPLC method.
The target is the same in assay [15]. The assay can be described thus: Competitive inhibition of recombinant human 5-LOX expressed in Escherichia coli BL21 cells using Arachidonic acid as substrate by UV absorbance.
The target is the same in assay [16]. In words: Inhibition of recombinant human 5-LOX expressed in baculovirus-infected insect cells preincubated for 10 mins followed by Arachidonic acid and ATP addition and measured after 20 mins by H2DCFD dye based fluorescence method.
The target in assay [17] is T4, Polyunsaturated fatty acid 5-lipoxygenase (Homo sapiens). The assay can be described thus: Inhibition of 5-LOX in human whole blood preincubated for 10 mins followed by Arachidonic acid and ATP addition and measured after 20 mins by H2DCFD dye based fluorescence method. Type of assay: tissue-based.

pIC50: −log10 of the molar value.

Chain of Prostaglandin E synthase/G/H synthase 2 (Homo sapiens) (O14684 whole entry, looked up): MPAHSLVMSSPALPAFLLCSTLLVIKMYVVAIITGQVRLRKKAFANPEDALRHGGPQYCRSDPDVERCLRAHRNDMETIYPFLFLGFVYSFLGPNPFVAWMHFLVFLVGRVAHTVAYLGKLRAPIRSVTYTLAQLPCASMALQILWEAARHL
Chain of Prostaglandin E synthase/G/H synthase 2 (Homo sapiens) (P35354 whole entry, looked up): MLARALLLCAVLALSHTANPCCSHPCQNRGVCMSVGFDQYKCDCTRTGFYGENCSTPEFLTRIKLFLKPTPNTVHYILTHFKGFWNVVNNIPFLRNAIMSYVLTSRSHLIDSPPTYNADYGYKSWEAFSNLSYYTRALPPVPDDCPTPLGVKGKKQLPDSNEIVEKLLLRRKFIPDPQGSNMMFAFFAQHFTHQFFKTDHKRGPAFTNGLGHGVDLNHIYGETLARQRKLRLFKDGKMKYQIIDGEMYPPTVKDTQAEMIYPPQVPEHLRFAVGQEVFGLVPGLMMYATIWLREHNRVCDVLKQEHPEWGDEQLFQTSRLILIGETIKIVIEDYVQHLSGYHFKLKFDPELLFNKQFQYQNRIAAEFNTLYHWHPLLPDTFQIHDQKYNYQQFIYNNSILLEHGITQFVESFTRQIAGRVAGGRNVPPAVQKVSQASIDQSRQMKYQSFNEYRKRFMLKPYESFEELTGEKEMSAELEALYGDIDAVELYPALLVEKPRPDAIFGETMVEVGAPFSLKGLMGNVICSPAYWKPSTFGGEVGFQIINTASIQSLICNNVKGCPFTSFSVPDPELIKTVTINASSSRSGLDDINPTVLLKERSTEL

As to `Cc1cccc(OC(=O)c2cc([N+](=O)[O-])cc([N+](=O)[O-])c2)c1`, in assay [1], the pIC50 (as a rule, −log10 of the IC50, conventionally taken in molar units) was 6.05. For `O=C(c1[nH]nc2c1CSc1sc(Br)cc1-2)N1CCN(c2ccccc2F)CC1`, the pIC50 in assay [2] is 4.47.

As to `NCCCC(=O)c1cc(=O)c2cc(F)ccc2o1`, in [3], the inhibition (commonly the percentage by which the read-out fell short of the control) was determined as 68%. Moreover, in [4], the pIC50 is 6.05. With `Cc1cc(Nc2ncc(-c3ccc(F)cc3)o2)cc(C)c1O`, the pIC50 in assay [5] is 4.32. Turning to `CC(C)=CCn1cc(/C=N/NC(N)=O)c2cc(Br)ccc21`, the negative-log IC50 (pIC50) in [6] is 6.92.

For the compound `COc1ccc(/C=C2\SC(c3ccc4ccccc4c3)=NC2=O)cc1`, the inhibition in [7] turned out to be 98%; in [8], 96%. As for `CS(=O)(=O)NC(Cc1cc(I)c(OCc2ccon2)c(I)c1)C(=O)O` (stereo unspecified), the inhibition in assay [9] came out at 66%; in assay [10] it was 74%.

Compound `C=CCc1ccc(O)c(OC)c1` [EUGENOL] gave a pIC50 in assay [11] of 4.59. Take `Cc1ccc(S(=O)(=O)n2c(C(=O)C(=O)N3CCCC3)cc3ccccc32)cc1`: the pIC50 in assay [12] was 6.77. Compound `CCCCCC(=O)c1c(O)cc(O)c(C/C=C(\C)CCC=C(C)C)c1O` had a negative-log IC50 (pIC50) in assay [13] of 4.99. In the case of `C=CCSCC=C` [DIALLYL SULFIDE], the pIC50 in [11] was 4.08. In the case of `O=C(NCCCCCCCCCNC(=O)c1cccc(O)c1O)c1cccc(O)c1O`, the pIC50 in assay [14] was 7.00. With `Clc1ccc(-c2cc(-c3c[nH]c4ccccc34)cc(-c3ccc(Cl)cc3)n2)cc1`, the negative logarithm of the IC50 (pIC50) in assay [15] was 5.00. In turn, `O=C(/C=C/C=C/c1ccc2c(c1)OCO2)N1CCCCC1` [PIPERINE] gave a pIC50 in assay [11] of 4.27.

For the compound `COc1cc(CNC(=O)CCCC/C=C/C(C)C)ccc1O` [CAPSAICIN], the pIC50 in assay [11] was 4.25.

With `Cn1nccc1-c1ccc(Sc2ccc(C3(C(N)=O)CCOCC3)cc2)cc1`, the negative logarithm of the IC50 (pIC50) in assay [16] is 6.64. It took 0.37 µM to reach the 80% level in assay [17] (IC80).

In assay [11], `O=C/C=C/c1ccccc1` had a pIC50 of 4.46.
